Test results taken from publication PMC6273328, “Simultaneous Determination of Purpurin, Munjistin and Mollugin in Rat Plasma by Ultra High Performance Liquid Chromatography-Tandem Mass Spectrometry: Application to a Pharmacokinetic Study after Oral Administration of Rubia cordifolia L. Extract” (Molecules, 2016).
Where two headings read alike, the source gives them in different places.

Assays:
[1] = Pharmacokinetic study in rats after oral administration of R. cordifolia extract (UHPLC-MS/MS of plasma); type: in vivo, Sprague-Dawley (SD) rats; conditions: male, Sprague-Dawley
Procedure: The UHPLC-MS/MS method described herein was applied to investigate the pharmacokinetics of the three constituents in R. cordifolia after a single oral administration of 0.82 g/kg of extract (equivalent to 6.3 μg/g for mollugin, 1.3 μg/g for munjistin, and 0.68 μg/g for purpurin) to twelve rats. We determined the oral dosage for the rats corresponding to the human dosage recommended in the Chinese Pharmacopoeia (2015 edition). The human dosage of R. cordifolia in the Chinese Pharmacopoeia is 10 g/day, so we calculated the final oral dosage as 0.82 g/kg in rats based on the Meeh-Rubn method.
Twelve male Sprague-Dawley (SD) rats (body weight 220 ± 20 g) were obtained from the experimental animal center of Harbin Medical University and adapted to a constant-temperature (25 °C) room. The animal handling procedures were approved by the institutional ethics committee and conformed to the principles of the International Guide for the Care and Use of Laboratory Animals. Before the experiment, the rats were fasted for 12 h and had access to water during the research period. Blood (0.4 mL) was collected from the orbital venous plexus at several specific time points (0, 0.33, 0.67, 1, 1.3, 1.67, 2, 2.5, 3, 4, 6, 8, 12 and 24 h) after the oral administration of R. cordifolia (0.82 g/kg). After centrifugation at 12000 rpm for 5 min, the plasma was collected immediately and stored at −20 °C until sample analysis.
Before the experiment, the plasma samples were thawed naturally at room temperature. As a liquid-liquid extraction method, 100 μL of methanol and 50 μL of I.S. (2000 ng/mL) were added to a rat plasma sample (100 μL), and then the content was mixed by a vortex mixer for 30 s. After this step, a 3 mL aliquot of ethyl acetate (extraction agent) was accurately added and the mixture vortexed for 60 s. Then the samples were put into a centrifuge. The organic supernatant was pipetted into clean glass tubes individually after centrifugation 4000 rpm for 5 min. The upper organic layer was removed and evaporated to dryness at 40 °C under a stream of nitrogen. The residue was then reconstituted with 100 μL of mobile phase (5 mM ammonium acetate in water/methanol, 10:90, v/v), vortexed for 30 s and filtered by a 0.22 μm membrane. A 5 μL aliquot of the solution was injected into the UHPLC-MS/MS system for analysis.
Noncompartmental methods were applied to calculate the following pharmacokinetic parameters. The peak plasma concentration (Cmax) and the time of maximum plasma concentration (Tmax) were observed directly from the measured data. The elimination rate constant (Ke) was calculated using the linear regression of the terminal points in a semi-log plot of the plasma concentration against time. The elimination half-life (t1/2) was calculated using the formula: t1/2 = 0.693/Ke
The area under the peak plasma concentration-time curve (AUC0→t) to the last measurable plasma concentration (Ct) was estimated using the linear trapezoidal rule. The area under the plasma concentration-time curve to time infinity (AUC0→∞) was calculated as following: AUC0→∞ = AUC0-t + Ct/Ke

[2] = Stability of the analytes in rat plasma (QC samples); type: in vitro ADME; conditions: n = 6; for Stability (% RE) Post-Preparative: extracted plasma samples, 12 h at 4 °C after preparation; for Stability (% RE) Short-Term / Stability (% RE) Long-Term / Stability (% RE) Three Freeze-Thaw: rat plasma; for Stability (% RE) Short-Term: 4 h at ambient temperature; for Stability (% RE) Long-Term: storage for 2 weeks at −20 °C; for Stability (% RE) Three Freeze-Thaw: three freeze (−20 °C) and thaw cycles
Procedure: To study the stability, QC samples of the three analytes at three QC levels (LQC, MQC, and HQC) were added into drug-free plasma samples and each levels contained six replicates. Four different manipulations were designed to assess the stability involving short-term stability (storage for 4 h at ambient temperature), long-term stability (storage for 2 weeks at −20 °C), freeze-thaw stability (three freeze at −20 °C and thaw cycles), and post-preparative stability (storage for 12 h after sample preparation at 4 °C). A series of concentrations of stability testing QC samples was obtained by the calibration curve which was established from freshly prepared standard samples.

[3] = medium QC (26.4/51.5/245 ng/mL)
[4] = high QC (211/412/1960 ng/mL purpurin/munjistin/mollugin)
[5] = low QC (0.528/1.03/4.90 ng/mL purpurin/munjistin/mollugin)
[6] = medium QC (26.4/51.5/245 ng/mL purpurin/munjistin/mollugin)

Row | AUC(0-inf) ([1]; rat, in vivo, po, 0.82 g/kg) [ng·h/mL] | AUC(0-t) ([1]; rat, in vivo, po, 0.82 g/kg) [ng·h/mL] | Cmax ([1]; rat, in vivo, po, 0.82 g/kg) [ng/mL] | Tmax ([1]; rat, in vivo, po, 0.82 g/kg) [h] | half-life ([1]; rat, in vivo, po, 0.82 g/kg) [h] | Stability (% RE) Post-Preparative ([2]; high QC (211/412/1960 ng/mL)) [% RE] | Stability (% RE) Post-Preparative ([2]; low QC (0.528/1.03/4.90 ng/mL)) [% RE] | Stability (% RE) Post-Preparative [2, 3] [% RE] | Stability (% RE) Short-Term ([2]; high QC (211/412/1960 ng/mL)) [% RE] | Stability (% RE) Short-Term ([2]; low QC (0.528/1.03/4.90 ng/mL)) [% RE] | Stability (% RE) Short-Term [2, 3] [% RE] | Stability (% RE) Long-Term ([2]; high QC (211/412/1960 ng/mL)) [% RE] | Stability (% RE) Long-Term ([2]; low QC (0.528/1.03/4.90 ng/mL)) [% RE] | Stability (% RE) Long-Term [2, 3] [% RE] | Stability (% RE) Three Freeze-Thaw [2, 4] [% RE] | Stability (% RE) Three Freeze-Thaw [2, 5] [% RE] | Stability (% RE) Three Freeze-Thaw [2, 6] [% RE] | SMILES | also measured
1 | 243 ± 35.9 | 206 ± 36.1 | 70.1 ± 11.8 | 1.61 ± 0.24 | 9.52 ± 2.68 | 13.68 | −14.02 | −2.00 | 14.76 | −13.38 | −5.35 | 12.08 | −2.59 | −2.68 | 14.76 | 1.92 | −5.35 | O=C1c2ccccc2C(=O)c2c(O)c(O)cc(O)c21 [Purpurin, purpurin] | 
2 |  |  |  |  |  | 14.38 | 11.15 | 0.65 | −8.69 | 9.90 | −4.35 | −8.55 | 4.57 | −0.17 | −13.17 | 10.26 | 8.78 | COC(=O)c1c2c(c3ccccc3c1O)OC(C)(C)C=C2 [Mollugin, mollugin] | half-life ([1]; rat plasma, single oral 0.82 g/kg R. cordifolia extract, mean ± SD, n = 12, non-compartment model, read-out: t1/2 (converted)): 9.02 ± 2.14 h; AUC(0-t) ([1]; rat plasma, single oral 0.82 g/kg R. cordifolia extract, mean ± SD, n = 12, read-out: AUC0→t): 232 ± 57.6 ng·h/mL; AUC(0-inf) ([1]; rat plasma, single oral 0.82 g/kg R. cordifolia extract, mean ± SD, n = 12, read-out: AUC0→∞): 296 ± 40.9 ng·h/mL; Cmax ([1]; rat plasma, single oral 0.82 g/kg R. cordifolia extract, mean ± SD, n = 12, read-out: Cmax): 52.1 ± 6.71 ng/mL; Tmax ([1]; rat plasma, single oral 0.82 g/kg R. cordifolia extract, mean ± SD, n = 12, read-out: Tmax): 1.99 ± 0.21 h
3 | 136 ± 21.2 | 110 ± 20.1 | 26.1 ± 6.59 | 2.58 ± 0.19 | 9.22 ± 2.75 | −10.15 | 11.15 | 7.04 | 7.31 | 11.56 | 6.73 | −0.77 | 13.97 | 5.56 | −2.82 | 9.04 | 9.46 | O=C1c2ccccc2C(=O)c2c1cc(O)c(C(=O)O)c2O [Munjistin, munjistin] | 
